According to ChEMBL document CHEMBL1909046, “DrugMatrix in vitro pharmacology data”:

Experiments:
[1] = target: T1, Type-2 angiotensin II receptor (Homo sapiens, UniProt P50052); type: cell-based; details: cho-k1; also: in other assays of this panel Not Active means under 50% inhibition at 10 µM
T1 sequence (P50052 whole entry): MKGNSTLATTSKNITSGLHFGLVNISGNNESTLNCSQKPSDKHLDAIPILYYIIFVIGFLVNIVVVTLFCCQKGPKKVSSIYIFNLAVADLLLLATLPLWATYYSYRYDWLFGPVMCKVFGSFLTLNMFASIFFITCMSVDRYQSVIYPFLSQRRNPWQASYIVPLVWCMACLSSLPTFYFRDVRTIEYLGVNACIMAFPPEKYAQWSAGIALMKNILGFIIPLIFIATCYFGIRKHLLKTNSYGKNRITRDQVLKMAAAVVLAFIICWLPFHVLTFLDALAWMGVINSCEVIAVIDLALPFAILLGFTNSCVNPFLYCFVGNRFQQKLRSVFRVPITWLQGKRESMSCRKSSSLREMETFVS

[2] = target: T2, 5-hydroxytryptamine receptor 2C (Homo sapiens, UniProt P28335); assay: DRUGMATRIX: Serotonin (5-Hydroxytryptamine) 5-HT2C radioligand binding (ligand: [3H] Mesulergine); type: cell membranes, CHO-K1, Membrane; details: Not Active = under 50% inhibition at 10 µM; for Ki: read-out: Ki
T2 sequence (P28335 whole entry): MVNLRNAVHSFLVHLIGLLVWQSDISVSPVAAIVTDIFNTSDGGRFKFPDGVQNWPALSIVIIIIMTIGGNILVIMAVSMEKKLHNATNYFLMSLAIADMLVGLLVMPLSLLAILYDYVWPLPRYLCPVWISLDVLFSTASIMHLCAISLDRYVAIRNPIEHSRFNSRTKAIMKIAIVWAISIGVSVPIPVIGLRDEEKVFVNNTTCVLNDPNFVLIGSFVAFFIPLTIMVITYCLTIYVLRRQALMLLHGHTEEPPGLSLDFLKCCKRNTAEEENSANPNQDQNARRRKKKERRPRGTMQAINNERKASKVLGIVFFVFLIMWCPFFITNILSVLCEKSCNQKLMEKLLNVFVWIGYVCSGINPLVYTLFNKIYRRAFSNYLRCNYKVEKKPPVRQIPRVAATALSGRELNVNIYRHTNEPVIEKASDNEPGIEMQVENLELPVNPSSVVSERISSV

[3] = target: Vascular endothelial growth factor receptor 1 (Homo sapiens, UniProt P17948); type: cell-based; details: huvec; also: in other assays of this panel Not Active means under 50% inhibition at 10 µM
[4] = target: D(3) dopamine receptor (Homo sapiens, UniProt P35462); assay: DRUGMATRIX: Dopamine D3 radioligand binding (ligand: [3H] Spiperone); type: cell membranes, CHO, Membrane; details: for Ki: read-out: Ki
[5] = DRUGMATRIX: GABAA, Chloride Channel, TBOB radioligand binding (ligand: [3H] TBOB); type: cell membranes, Rattus norvegicus, Wistar, Cerebral cortex, Membrane; details: Not Active = under 50% inhibition at 10 µM
[6] = target: Kappa-type opioid receptor (Homo sapiens, UniProt P41145); assay: DRUGMATRIX: Opiate kappa (OP2, KOP) radioligand binding (ligand: [3H] Diprenorphine); type: cell membranes, HEK293, Membrane; details: hek293; Not Active = under 50% inhibition at 10 µM
[7] = target: T3, Progesterone receptor (Bos taurus, UniProt Q690N0); assay: DRUGMATRIX: Progesterone radioligand binding (ligand: [3H] R-5020); type: tissue-based, Uterus; details: Not Active = under 50% inhibition at 10 µM
T3 sequence (Q690N0 whole entry): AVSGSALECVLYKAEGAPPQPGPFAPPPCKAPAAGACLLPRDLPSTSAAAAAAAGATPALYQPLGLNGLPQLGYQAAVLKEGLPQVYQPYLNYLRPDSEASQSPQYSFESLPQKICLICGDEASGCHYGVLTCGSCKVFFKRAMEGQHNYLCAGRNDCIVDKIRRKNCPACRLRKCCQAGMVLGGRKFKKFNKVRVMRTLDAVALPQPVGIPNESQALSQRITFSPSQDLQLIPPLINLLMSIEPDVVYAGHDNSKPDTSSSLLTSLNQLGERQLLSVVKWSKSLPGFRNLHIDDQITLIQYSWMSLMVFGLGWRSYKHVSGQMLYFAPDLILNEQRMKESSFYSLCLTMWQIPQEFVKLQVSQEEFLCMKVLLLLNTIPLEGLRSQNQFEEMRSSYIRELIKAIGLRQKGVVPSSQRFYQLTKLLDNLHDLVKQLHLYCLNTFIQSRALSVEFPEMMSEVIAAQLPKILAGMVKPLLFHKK

Chain of Kappa-type opioid receptor (P41145 whole entry): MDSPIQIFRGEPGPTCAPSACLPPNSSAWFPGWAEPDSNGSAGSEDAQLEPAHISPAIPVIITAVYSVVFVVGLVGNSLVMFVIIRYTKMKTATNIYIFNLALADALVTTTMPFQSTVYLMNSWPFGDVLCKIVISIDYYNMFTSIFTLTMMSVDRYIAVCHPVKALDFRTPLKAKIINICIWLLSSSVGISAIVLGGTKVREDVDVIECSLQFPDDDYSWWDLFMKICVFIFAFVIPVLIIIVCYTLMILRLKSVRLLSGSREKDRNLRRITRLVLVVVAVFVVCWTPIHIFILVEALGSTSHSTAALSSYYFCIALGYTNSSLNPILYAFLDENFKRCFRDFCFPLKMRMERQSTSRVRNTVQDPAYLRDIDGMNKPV
Chain of Vascular endothelial growth factor receptor 1 (P17948 whole entry): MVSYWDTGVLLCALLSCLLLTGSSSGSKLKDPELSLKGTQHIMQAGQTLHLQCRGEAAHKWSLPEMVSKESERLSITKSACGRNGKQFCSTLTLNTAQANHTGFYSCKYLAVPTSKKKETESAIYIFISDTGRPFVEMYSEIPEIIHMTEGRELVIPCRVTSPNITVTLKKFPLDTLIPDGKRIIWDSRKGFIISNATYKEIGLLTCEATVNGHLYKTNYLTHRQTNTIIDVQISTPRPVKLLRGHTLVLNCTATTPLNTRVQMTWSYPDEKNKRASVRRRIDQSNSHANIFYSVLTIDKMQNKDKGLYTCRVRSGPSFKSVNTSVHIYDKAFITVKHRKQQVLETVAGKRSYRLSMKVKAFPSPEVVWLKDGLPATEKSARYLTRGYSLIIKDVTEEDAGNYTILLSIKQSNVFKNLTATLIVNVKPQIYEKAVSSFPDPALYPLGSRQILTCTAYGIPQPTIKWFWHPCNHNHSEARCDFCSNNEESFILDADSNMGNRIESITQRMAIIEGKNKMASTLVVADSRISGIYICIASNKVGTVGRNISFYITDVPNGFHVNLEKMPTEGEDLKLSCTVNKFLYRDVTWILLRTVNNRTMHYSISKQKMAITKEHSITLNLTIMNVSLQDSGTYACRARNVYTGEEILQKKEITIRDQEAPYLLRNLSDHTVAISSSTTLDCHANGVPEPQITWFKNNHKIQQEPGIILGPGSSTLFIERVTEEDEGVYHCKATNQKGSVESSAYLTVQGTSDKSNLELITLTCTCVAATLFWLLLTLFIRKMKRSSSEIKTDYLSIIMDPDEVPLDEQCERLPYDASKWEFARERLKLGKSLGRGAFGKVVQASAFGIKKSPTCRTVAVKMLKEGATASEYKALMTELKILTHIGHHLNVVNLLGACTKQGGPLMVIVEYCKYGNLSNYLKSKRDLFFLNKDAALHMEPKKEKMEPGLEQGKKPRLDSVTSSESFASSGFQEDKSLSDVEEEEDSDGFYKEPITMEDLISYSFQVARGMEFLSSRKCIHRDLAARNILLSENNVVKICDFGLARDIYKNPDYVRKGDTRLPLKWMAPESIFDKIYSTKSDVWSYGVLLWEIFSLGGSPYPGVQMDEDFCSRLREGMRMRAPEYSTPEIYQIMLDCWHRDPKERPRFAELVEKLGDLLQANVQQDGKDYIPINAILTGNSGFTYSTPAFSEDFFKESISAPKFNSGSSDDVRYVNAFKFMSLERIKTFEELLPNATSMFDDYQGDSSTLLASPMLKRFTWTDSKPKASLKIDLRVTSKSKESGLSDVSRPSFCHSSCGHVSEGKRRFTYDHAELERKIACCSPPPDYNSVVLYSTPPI
Chain of D(3) dopamine receptor (P35462 whole entry): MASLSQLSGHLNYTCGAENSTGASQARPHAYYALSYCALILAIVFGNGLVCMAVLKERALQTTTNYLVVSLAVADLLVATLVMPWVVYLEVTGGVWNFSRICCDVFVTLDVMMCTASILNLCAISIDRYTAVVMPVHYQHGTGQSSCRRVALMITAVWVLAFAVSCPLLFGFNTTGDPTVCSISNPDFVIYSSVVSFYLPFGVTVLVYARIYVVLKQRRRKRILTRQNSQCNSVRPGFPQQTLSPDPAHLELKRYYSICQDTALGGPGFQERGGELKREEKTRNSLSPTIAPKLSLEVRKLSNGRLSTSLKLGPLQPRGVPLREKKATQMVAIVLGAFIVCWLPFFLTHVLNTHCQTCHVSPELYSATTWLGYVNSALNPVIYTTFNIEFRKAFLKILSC

Nc1ncn([C@@H]2O[C@H](CO)[C@@H](O)[C@H]2O)c(=O)n1 [AZACITIDINE]
Not Active: IC50 [1] | IC50 ([2]; cho-k1) | IC50 [3] | IC50 ([4]; cho) | IC50 [5] | Ki [5] | IC50 [6] | IC50 [7]

C[C@](N)(Cc1ccc(O)c(O)c1)C(=O)O [METHYLDOPA]
Not Active: IC50 [1] | IC50 ([2]; cho-k1) | IC50 [3] | IC50 ([4]; cho) | IC50 [5] | Ki [5] | IC50 [6] | IC50 [7]

O=C(CCCN1CC=C(n2c(=O)[nH]c3ccccc32)CC1)c1ccc(F)cc1 [DROPERIDOL]
Not Active: IC50 [1] | IC50 [3] | IC50 [5] | Ki [5] | IC50 [6] | IC50 [7]
2.77 nM: IC50 ([4]; read-out: IC50)
0.939 nM: Ki [4]
238 nM: Ki [2]
454 nM: IC50 ([2]; read-out: IC50)

CN(C)CCCN1c2ccccc2Sc2ccccc21 [PROMAZINE]
52 nM: Ki [2]
Not Active: IC50 [1] | IC50 [3] | IC50 [5] | Ki [5] | IC50 [6] | IC50 [7]
205 nM: IC50 ([4]; read-out: IC50)
99 nM: IC50 ([2]; read-out: IC50)
69 nM: Ki [4]

CC1CC(OC(=O)C(O)c2ccccc2)CC(C)(C)C1 (configuration not stated) [CYCLANDELATE]
Not Active: IC50 [1] | IC50 ([2]; cho-k1) | IC50 [3] | IC50 ([4]; cho) | IC50 [5] | Ki [5] | IC50 [6] | IC50 [7]

c1ccc2c(c1)c1cccc3ccc4cccc2c4c31 [BENZO[E]PYRENE]
Not Active: IC50 [1] | IC50 ([2]; cho-k1) | IC50 [3] | IC50 ([4]; cho) | IC50 [5] | Ki [5] | IC50 [6] | IC50 [7]

CC(C)[C@@]1(NC(=O)[C@@H]2C[C@@H]3c4cccc5[nH]cc(c45)C[C@H]3N(C)C2)O[C@@]2(O)[C@@H]3CCCN3C(=O)[C@H](Cc3ccccc3)N2C1=O.CS(=O)(=O)O [DIHYDROERGOCRISTINE MESYLATE]
2.29 nM: IC50 ([4]; read-out: IC50)
125 nM: Ki [2]
Not Active: IC50 [1] | IC50 [3] | IC50 [5] | Ki [5] | IC50 [6] | IC50 [7]
239 nM: IC50 ([2]; read-out: IC50)
0.777 nM: Ki [4]

CC[C@@]1(O)C[C@H](O[C@H]2C[C@H](N(C)C)[C@H](O[C@H]3C[C@H](O)[C@H](O[C@H]4CCC(=O)[C@H](C)O4)[C@H](C)O3)[C@H](C)O2)c2c(cc3c(c2O)C(=O)c2c(O)cccc2C3=O)[C@H]1C(=O)OC [ACLARUBICIN]
Not Active: IC50 [1] | IC50 ([2]; cho-k1) | IC50 [3] | IC50 ([4]; cho) | IC50 [5] | Ki [5] | IC50 [6] | IC50 [7]

CCn1cc(C(=O)O)c(=O)c2cc(F)c(N3CCNCC3)cc21 [NORFLOXACIN]
Not Active: IC50 [1] | IC50 ([2]; cho-k1) | IC50 [3] | IC50 ([4]; cho) | IC50 [5] | Ki [5] | IC50 [6] | IC50 [7]

Cc1c(O)c(=O)ccn1C [DEFERIPRONE]
Not Active: IC50 [1] | IC50 ([2]; cho-k1) | IC50 [3] | IC50 ([4]; cho) | IC50 [5] | Ki [5] | IC50 [6] | IC50 [7]

NC1=NC(=O)C(c2ccccc2)O1 (configuration not stated) [PEMOLINE]
Not Active: IC50 [1] | IC50 ([2]; cho-k1) | IC50 [3] | IC50 ([4]; cho) | IC50 [5] | Ki [5] | IC50 [6] | IC50 [7]

Sc1ncnc2nc[nH]c12 [MERCAPTOPURINE ANHYDROUS]
Not Active: IC50 [1] | IC50 ([2]; cho-k1) | IC50 [3] | IC50 ([4]; cho) | IC50 [5] | Ki [5] | IC50 [6] | IC50 [7]

COCCc1ccc(OCC(O)CNC(C)C)cc1 (configuration not stated) [METOPROLOL]
Not Active: IC50 [1] | IC50 ([2]; cho-k1) | IC50 [3] | IC50 ([4]; cho) | IC50 [5] | Ki [5] | IC50 [6] | IC50 [7]

O=c1[nH]c(=O)n([C@H]2C[C@H](O)[C@@H](CO)O2)cc1I [IDOXURIDINE]
Not Active: IC50 [1] | IC50 ([2]; cho-k1) | IC50 [3] | IC50 ([4]; cho) | IC50 [5] | Ki [5] | IC50 [6] | IC50 [7]

CNNCc1ccc(C(=O)NC(C)C)cc1 [PROCARBAZINE]
Not Active: IC50 [1] | IC50 ([2]; cho-k1) | IC50 [3] | IC50 ([4]; cho) | IC50 [5] | Ki [5] | IC50 [6] | IC50 [7]

CC(C)C(=O)Nc1ccc([N+](=O)[O-])c(C(F)(F)F)c1 [FLUTAMIDE]
Not Active: IC50 [1] | IC50 ([2]; cho-k1) | IC50 [3] | IC50 ([4]; cho) | IC50 [5] | Ki [5] | IC50 [6] | IC50 [7]

C[C@H]1c2cccc(O)c2C(=O)C2=C(O)[C@]3(O)C(=O)C(C(N)=O)=C(O)[C@@H](N(C)C)[C@@H]3[C@@H](O)[C@@H]21.O [DOXYCYCLINE]
Not Active: IC50 [1] | IC50 ([2]; cho-k1) | IC50 [3] | IC50 ([4]; cho) | IC50 [5] | Ki [5] | IC50 [6] | IC50 [7]
